The values that follow come from paper PMC5971309, “Identification of Estrogen Receptor α Antagonists from Natural Products via In Vitro and In Silico Approaches” (Oxidative Medicine and Cellular Longevity, 2018).

For orientation: IC50 means the point on the concentration scale where inhibition reaches its midpoint. Read a high IC50 as lower potency.

The target in assay [1] is T1, ERα (Homo sapiens, UniProt P03372).
T1 construct: purchased Life Technologies
T1 sequence (P03372 1-595): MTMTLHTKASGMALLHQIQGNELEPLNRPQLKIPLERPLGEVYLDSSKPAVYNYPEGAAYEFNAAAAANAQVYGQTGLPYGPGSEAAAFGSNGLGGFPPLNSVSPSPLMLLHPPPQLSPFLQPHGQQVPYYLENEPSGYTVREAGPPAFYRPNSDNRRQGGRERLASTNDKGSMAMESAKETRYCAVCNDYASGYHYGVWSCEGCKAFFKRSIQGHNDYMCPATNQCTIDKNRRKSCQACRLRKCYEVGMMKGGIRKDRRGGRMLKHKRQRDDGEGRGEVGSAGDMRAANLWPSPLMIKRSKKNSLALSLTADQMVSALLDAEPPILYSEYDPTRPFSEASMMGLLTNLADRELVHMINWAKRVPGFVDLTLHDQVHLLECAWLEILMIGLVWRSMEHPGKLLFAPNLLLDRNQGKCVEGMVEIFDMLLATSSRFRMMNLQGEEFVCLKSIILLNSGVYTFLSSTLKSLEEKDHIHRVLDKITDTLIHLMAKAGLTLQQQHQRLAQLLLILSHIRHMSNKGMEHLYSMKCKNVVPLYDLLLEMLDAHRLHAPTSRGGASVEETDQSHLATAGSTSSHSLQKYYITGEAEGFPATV
Description: green PolarScreen ERα Competitor Assay (fluorescence polarization). It counts as binding. Here is the method: The ERα binding affinities of representative compounds predicted as ERα antagonists were measured by fluorescence polarization procedure using green PolarScreen™ ERα Competitor Assay kit (Life Technologies, CA, United States of America). Briefly, 75 nM ERα together with 4.5 nM fluormone was mixed with a series of concentrations of the test compounds in the assay buffer. Then, they were incubated for 2 h in room temperature in black low volume 384-well assay plate with NBS surface (Corning, NY, United States of America) for fluorescence polarization assay. Subsequently, the detection wavelength was set at excitation wavelength 485 nm and emission wavelength 535 nm with bandwidths of 25/20 nm in EnVision Workstation version 1.7 (PerkinElmer, MA, United States of America). 2104 EnVision® Multilabel Plate Reader was performed for the measurements.

Assay [2] deals with ERα. Description: Luciferase reporter gene assay for ERα in MCF-7 cells. The following applies: MCF-7 cells transfected with ERE-luc reporter, three concentrations, 24 h. It counts as cell-based, human. Here is the method:
Cell transfection and luciferase activity assay were utilized to investigate the effects of the compounds on ER transcriptional activation. The human breast cancer cell line MCF-7 was obtained from the Beijing Key Laboratory of Drug Target Research and Drug Screening, Chinese Academy of Medical Sciences (Beijing, China). Dulbecco's Modified Eagle's Medium (DMEM) culture medium containing 10% fetal calf serum (FBS), 100 U/mL penicillin, and 100 μg/mL streptomycin was used as complete culture medium. The culture conditions were at 37°C, saturated humidity, and 5% CO2. The culture medium was changed every day and when the confluence of cells reached 90%, MCF-7 cells were digested with 0.25% trypsin containing 0.02% EDTA and then cultured under the same culture conditions. MCF-7 cells in logarithmic growth phase were resuspended in 3 mL complete culture medium and were seeded on 24-well plates with a density of 1 × 10^5/well overnight. After incubation for 24 h, cells were grown to approximately 60–80% confluence and then washed by culture medium without serum. MCF-7 cells were cotransfected with the reporter plasmid pGL2-ERE3-luc. Based on the manufacturer's instructions, transfection was mediated by lipofectamine 3000 (Invitrogen). After incubation for 12 h, transfection medium was eliminated, and MCF-7 cells were treated with three concentrations of compounds for 24 h. Then, MCF-7 cells were washed with phosphate-buffered saline (PBS) and cell lysis was collected after oscillation with a low speed. Finally, the luciferase activity was determined by dual-luciferase reporter assay system (Promega) according to the product manual.
On the technique in general: A reporter such as luciferase makes a cellular process visible.

Where [3] appears, read: 75 nM ERα, 4.5 nM fluormone, 2 h, room temperature.

Bounds are passed on as bounds.

Regarding `O=C(OC1Cc2c(O)cc(O)cc2OC1c1cc(O)c(O)c(O)c1)c1cc(O)c(O)c(O)c1` (single isomer, unassigned; (-)) [EGCG, (−)-epigallocatechin-3-gallate], the half-inhibitory concentration (IC50) on ERα [1] (setting [3]) stood at 0.066 ± 0.0116 µM.
As for `O=c1c(-c2ccc(O)cc2)coc2cc(O)ccc12` [Daidzein], the “Antiestrogenic effects (ERα transactivation, luciferase activity)” value (from here on “Antiestrogenic effects”) with ERα [2] is on record as “antagonist activity was lower than that of genistein”.
Consider `O=c1oc2c(O)c(O)cc3c(=O)oc4c(O)c(O)cc1c4c23` [Ellagic acid], for which the half-maximal inhibitory concentration (IC50) on ERα [1] (setting [3]) came to 0.0626 ± 0.00934 µM. Moreover, the “Antiestrogenic effects” value in the assay on ERα [2] is “decrease the expression of ERα at high and medium concentrations”.
Take `O=c1c(-c2ccc(O)cc2)coc2cc(O)cc(O)c12` [Genistein]: in the assay with ERα [2], the “Antiestrogenic effects” value is given as “decrease the expression of the ERα remarkably at a dose-dependent manner”.
In the case of `O=C1C[C@@H](c2ccc(O)cc2)Oc2cc(O)cc(O)c21` [Naringenin], the IC50 on ERα [1] (setting [3]) was determined as 0.968 ± 0.0709 µM. In the assay with ERα [2], the “Antiestrogenic effects” value is “weak antiestrogenic effects”.
In the case of `O=C(CCc1ccc(O)cc1)c1c(O)cc(O)cc1O` [Phloretin], the 50% inhibitory concentration (IC50) on ERα [1] (setting [3]) worked out at 0.0745 ± 0.0242 µM. The “Antiestrogenic effects” value in the assay with ERα [2] is recorded as “regulated the expression of ERα in MCF-7 cells in a dose-dependent way”.
Regarding `C[C@H]1[C@H](C)CC[C@]2(C(=O)O)CC[C@]3(C)C(=CC[C@@H]4[C@@]5(C)CC[C@H](O)C(C)(C)[C@@H]5CC[C@]43C)[C@H]12` [Ursolic acid], in the assay on ERα [2], the “Antiestrogenic effects” value is “antiestrogenic effects only at high dose”.
For `COc1ccc(-c2cc(=O)c3c(O)cc(O[C@@H]4O[C@H](CO[C@@H]5O[C@@H](C)[C@H](O)[C@@H](O)[C@H]5O)[C@@H](O)[C@H](O)[C@H]4O)cc3o2)cc1O` [diosmin], on ERα [1] (values in μM), the half-inhibitory concentration (IC50) is over 10 µM.
The same measure, in the same setting: with `C[C@@H]1O[C@@H](O[C@H]2[C@H](Oc3cc(O)c4c(c3)O[C@H](c3ccc(O)cc3)CC4=O)O[C@H](CO)[C@@H](O)[C@@H]2O)[C@H](O)[C@H](O)[C@H]1O` [naringin] the figure was over 10 µM.
Molecule `COc1cc(C2Oc3cc([C@H]4Oc5cc(O)cc(O)c5C(=O)[C@@H]4O)ccc3OC2CO)ccc1O` (stereo partly shown) [silibinin] registered an IC50 at ERα [1] (values in μM) of over 10 µM.
